# Assay results taken from ChEMBL document CHEMBL1201862, “PubChem BioAssay data set” (2004).
# The source made the active and inactive calls.
# How the values were obtained:
# [1] = reduced cellular PGC1a acetyl-lysine signal – cell-based, cherry-picked samples, dose response (AID 720514); format: functional;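 also: potency may reflect raised or lowered acetylation signal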
# cells = format: functional
# [2] = THP-1 cell cytotoxicity, dose response, cytotoxicity control for non-replicating M. tuberculosis project (AID 489025); format: functional
# Prothrombin = Prothrombin (Homo sapiens, UniProt P00734); test: Thrombin 1536 HTS Dose Response Confirmation. [Related pubchem assays: 1046 (Thrombin 1536 HTS; hits were confirmed in this assay)]; format: functional
# [3] = viability loss in THP-1 monocytes – THP-1 cells, cytotoxicity control for Vif-APOBEC3G degradation inhibitor project, dose response (AID 1117359); format: functional; settings: THP-1
# [4] = molecular target: Eukaryotic translation initiation factor 4E (Mus musculus, UniProt P63073); test: blockers of eIF4G binding by eIF4E – biochemical, TR-FRET, dose response (AID 855); format: functional;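 also: potency for disrupting eIF4E binding to eIF4GI seen as loss of FRET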
# [5] = molecular target: T1, Histone-lysine N-methyltransferase NSD2 (Homo sapiens, UniProt O96028); format: biochemical
# T1 sequence (O96028 whole entry): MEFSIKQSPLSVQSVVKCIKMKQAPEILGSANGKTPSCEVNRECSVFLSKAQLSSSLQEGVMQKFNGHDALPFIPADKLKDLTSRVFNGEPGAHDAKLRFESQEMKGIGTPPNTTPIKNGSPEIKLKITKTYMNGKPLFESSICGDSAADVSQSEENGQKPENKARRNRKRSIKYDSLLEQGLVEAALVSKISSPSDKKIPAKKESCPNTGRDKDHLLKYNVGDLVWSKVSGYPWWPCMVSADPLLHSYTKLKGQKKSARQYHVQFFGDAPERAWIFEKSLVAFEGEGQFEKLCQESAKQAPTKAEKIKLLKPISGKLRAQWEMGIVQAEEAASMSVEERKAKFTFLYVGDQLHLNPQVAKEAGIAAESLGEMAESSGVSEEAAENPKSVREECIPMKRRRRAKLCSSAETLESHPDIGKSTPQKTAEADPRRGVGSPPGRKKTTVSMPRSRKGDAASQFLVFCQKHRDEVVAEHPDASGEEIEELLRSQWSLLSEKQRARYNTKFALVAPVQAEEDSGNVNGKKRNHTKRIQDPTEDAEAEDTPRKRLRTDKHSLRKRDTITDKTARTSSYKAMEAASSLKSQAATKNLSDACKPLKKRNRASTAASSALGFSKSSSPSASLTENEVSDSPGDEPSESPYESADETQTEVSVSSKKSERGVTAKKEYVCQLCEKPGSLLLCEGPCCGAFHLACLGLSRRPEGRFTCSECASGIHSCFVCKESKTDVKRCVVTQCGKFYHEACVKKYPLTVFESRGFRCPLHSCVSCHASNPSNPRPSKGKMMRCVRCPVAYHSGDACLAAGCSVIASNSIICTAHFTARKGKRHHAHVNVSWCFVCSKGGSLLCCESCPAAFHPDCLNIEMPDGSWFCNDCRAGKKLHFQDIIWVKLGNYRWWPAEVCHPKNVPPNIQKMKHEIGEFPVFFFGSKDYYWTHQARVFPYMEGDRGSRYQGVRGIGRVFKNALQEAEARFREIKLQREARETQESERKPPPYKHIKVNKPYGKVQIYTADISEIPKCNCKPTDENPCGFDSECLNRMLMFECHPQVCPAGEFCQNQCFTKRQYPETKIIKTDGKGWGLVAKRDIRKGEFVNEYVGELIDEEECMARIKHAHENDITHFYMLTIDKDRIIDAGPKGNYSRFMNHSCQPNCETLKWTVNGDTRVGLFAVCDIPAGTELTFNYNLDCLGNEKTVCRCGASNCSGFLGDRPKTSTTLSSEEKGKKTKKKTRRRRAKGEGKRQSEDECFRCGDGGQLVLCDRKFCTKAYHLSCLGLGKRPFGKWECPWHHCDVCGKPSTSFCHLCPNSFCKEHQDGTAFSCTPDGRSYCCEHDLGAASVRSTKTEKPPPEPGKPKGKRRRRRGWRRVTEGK
# [6] = molecular target: Induced myeloid leukemia cell differentiation protein Mcl-1 (Homo sapiens, UniProt Q07820); format: functional
# [7] = molecular target: Peroxisome proliferator-activated receptor gamma/Nuclear receptor coactivator 2 (Homo sapiens, UniProt P37231); test: (§1) TR-FRET dose response biochemical High Throughput Screening assay for agonists of the steroid receptor coactivator 2 (SRC-2) recruitment by the peroxisome proliferator-activated receptor gamma (PPAR gamma): non-selective agonists. [Related pubchem assays: 1297, 1032 ]; format: functional
# [8] = molecular target: Peroxisome proliferator-activated receptor gamma/Nuclear receptor coactivator 1 (Homo sapiens, UniProt P37231); test: as §1, with “1 (SRC-1)” for “2 (SRC-2)”, “assays (depositor defined):AID1300, AID1808, AID504735, AID631]” for “assays: 1297, 1032 ]”; format: protein assay
# [9] = molecular target: Peroxisome proliferator-activated receptor gamma/Nuclear receptor coactivator 3 (Homo sapiens, UniProt P37231); test: as §1, with “3 (SRC-3)” for “2 (SRC-2)”, “1301 (Confirmation screen.), 1048 (Primary screen.)]” for “1297, 1032 ]”; format: functional
# Leucine aminopeptidase = molecular target: T2, Leucine aminopeptidase (Plasmodium falciparum 3D7, UniProt Q8IL11); test: P. falciparum M17LAP inhibitors, primary screen, biochemical, fluorogenic H-Leu-NHMec substrate, 1536-well (AID 1619); format: functional
# T2 sequence (Q8IL11 whole entry): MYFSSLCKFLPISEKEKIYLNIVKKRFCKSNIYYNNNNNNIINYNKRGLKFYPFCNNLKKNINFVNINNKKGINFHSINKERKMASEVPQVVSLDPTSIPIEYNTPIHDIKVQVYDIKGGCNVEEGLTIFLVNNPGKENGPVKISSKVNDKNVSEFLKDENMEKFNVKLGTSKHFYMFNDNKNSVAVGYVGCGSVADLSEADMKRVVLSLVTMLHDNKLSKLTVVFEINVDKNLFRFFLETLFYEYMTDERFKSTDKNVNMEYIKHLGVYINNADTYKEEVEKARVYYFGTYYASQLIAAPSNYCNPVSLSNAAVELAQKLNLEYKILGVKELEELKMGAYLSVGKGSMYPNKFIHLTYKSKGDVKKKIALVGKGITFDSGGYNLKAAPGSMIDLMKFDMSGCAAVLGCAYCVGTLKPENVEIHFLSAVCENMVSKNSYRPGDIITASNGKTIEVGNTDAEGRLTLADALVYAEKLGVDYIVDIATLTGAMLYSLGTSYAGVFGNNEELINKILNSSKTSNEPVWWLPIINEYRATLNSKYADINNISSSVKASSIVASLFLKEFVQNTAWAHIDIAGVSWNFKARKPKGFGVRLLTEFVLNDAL
# [10] = HEK-293T viability loss after treatment – luminescence, T-cell screen hits, cytotoxicity control for TCR NF-kB inhibitor project, dose response (AID 489026); format: functional, cell-based;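 also: cells exposed to compound about 14 hours before the viability readout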
# [11] = molecular target: FAD-linked sulfhydryl oxidase ALR (Homo sapiens, UniProt P55789); test: ALR-catalysed DTT oxidation blockers – biochemical, H2O2 detection, luminescence, cherry-pick, dose response (AID 493248)
# Beta-galactosidase = Beta-galactosidase (Escherichia coli, UniProt Q8VNN2); test: detection-enzyme interference by beta-gal modulators – biochemical, E. coli enzyme, set 3, artefact control for CCR6 antagonist project, dose response (AID 504712); format: functional
# Streptokinase A = molecular target: T3, Streptokinase A (Streptococcus pyogenes serotype M1, UniProt P10520); test: viability-normalized secreted streptokinase activity reduction – plasminogen activation absorbance, OD405, dose response (AID 1914); format: functional, Streptococcus pyogenes M1 GAS;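 also: secreted streptokinase activity via plasminogen activation per viability signal from cell pellet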
# T3 sequence (P10520 whole entry): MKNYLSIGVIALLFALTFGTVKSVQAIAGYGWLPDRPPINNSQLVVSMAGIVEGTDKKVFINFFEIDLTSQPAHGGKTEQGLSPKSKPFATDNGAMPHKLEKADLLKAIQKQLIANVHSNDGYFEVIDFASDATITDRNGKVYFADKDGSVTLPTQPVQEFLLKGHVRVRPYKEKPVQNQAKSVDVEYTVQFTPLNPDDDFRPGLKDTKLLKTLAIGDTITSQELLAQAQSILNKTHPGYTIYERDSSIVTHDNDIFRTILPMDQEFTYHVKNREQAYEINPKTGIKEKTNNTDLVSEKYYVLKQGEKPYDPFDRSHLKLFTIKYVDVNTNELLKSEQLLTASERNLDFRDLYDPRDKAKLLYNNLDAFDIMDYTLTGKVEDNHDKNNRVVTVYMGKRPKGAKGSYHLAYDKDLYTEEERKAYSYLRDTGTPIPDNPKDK
# Streptococcus = test: GAS UMAA2166 growth inhibition – luminescence, BacTiterGlo, counter-screen for streptokinase expression inhibitor project, dose response (AID 1915); format: functional, organism-based;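 also: potency for reduction of bacterial viability or growth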
# [12] = test system: Streptococcus sp. 'group A'; test: Streptococcus pyogenes SK(-)GAS viability under kanamycin – luminescence, BacTiterGlo, confirmation, counter-screen for streptokinase expression inhibitor project, dose response (AID 1900); format: functional, organism-based
# H4 = test: Luminescence Cell-Based Dose Response HTS to Identify Activators of 5'UTR Stem-Loop Driven Prion Protein mRNA Translation in H4 Neuroglioblastoma Cells. [Related pubchem assays: 1829 (Project Summary), 1814 (Primary HTS)]; format: functional; settings: Homo sapiens
# [13] = Luminescence Cell-Based Dose Response HTS to Identify Activators of Luciferase Translation or Activity in H4 […] Cells. [Related pubchem assays: 1829 (Project Summary), 1814 (Primary HTS)]; format: functional
# [14] = molecular target: T4, Rac GTPase-activating protein 1 (Homo sapiens, UniProt Q9H0H5); test: blockers of MgcRacGAP-driven Rac1 GTP hydrolysis – biochemical, ADP Hunter fluorescence, primary and confirmatory, confirmation (AID 624330); format: functional
# T4 sequence (Q9H0H5 whole entry): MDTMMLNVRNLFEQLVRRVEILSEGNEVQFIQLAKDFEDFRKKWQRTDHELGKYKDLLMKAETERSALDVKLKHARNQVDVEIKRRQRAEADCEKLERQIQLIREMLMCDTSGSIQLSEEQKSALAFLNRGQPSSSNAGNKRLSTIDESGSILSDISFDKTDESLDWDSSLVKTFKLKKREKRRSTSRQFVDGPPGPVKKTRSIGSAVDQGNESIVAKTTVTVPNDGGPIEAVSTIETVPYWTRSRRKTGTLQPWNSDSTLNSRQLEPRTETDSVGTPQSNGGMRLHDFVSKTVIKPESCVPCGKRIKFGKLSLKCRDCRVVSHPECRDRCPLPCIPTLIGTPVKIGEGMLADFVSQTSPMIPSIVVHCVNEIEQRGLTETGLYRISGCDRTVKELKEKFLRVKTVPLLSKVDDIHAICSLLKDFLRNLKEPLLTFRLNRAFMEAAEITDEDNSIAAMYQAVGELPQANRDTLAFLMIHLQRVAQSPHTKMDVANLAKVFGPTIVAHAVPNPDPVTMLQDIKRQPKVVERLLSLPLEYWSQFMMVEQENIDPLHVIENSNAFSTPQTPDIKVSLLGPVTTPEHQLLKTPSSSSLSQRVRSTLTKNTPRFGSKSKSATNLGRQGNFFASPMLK
# Large T antigen = Large T antigen (Simian virus 40, UniProt P03070); format: functional, Betapolyomavirus macacae;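 also: Confirmatory-stage PubChem screen for compounds that inhibit SV40 T antigen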
# [15] = toxicity to human hepatoma HepG2 cells – cell-based, cherry-picked samples, cytotoxicity control, dose response (AID 1159577); format: functional
# [16] = P. falciparum Dd2 growth inhibitors, dose response, SYBR Green, cherry-picked samples (AID 1159567); format: functional, cell-based
# Paired box protein Pax-8 = Paired box protein Pax-8 (Homo sapiens, UniProt Q06710); test: PAX8 transcriptional activity inhibition in RMG-I – RMG-I cells, luciferase, cherry-pick, dose response (AID 687027); format: functional, cell-based;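 also: luciferase reporter driven by Pax8 target thyroperoxidase promoter measured by SteadyGlo luminescence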
# Chain of Paired box protein Pax-8 (Q06710 whole entry): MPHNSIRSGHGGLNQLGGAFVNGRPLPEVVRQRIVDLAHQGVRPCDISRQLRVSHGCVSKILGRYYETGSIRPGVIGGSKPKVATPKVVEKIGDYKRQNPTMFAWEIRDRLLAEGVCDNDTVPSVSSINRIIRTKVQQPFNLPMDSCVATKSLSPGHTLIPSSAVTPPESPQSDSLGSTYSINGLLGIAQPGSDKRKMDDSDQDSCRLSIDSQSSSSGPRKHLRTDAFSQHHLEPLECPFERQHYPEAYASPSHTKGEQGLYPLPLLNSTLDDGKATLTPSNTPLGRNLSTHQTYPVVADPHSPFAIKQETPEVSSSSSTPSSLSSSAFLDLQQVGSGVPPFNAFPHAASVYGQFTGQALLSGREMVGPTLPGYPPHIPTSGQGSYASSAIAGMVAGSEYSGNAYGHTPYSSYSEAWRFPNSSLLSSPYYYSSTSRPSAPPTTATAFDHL
# Chain of Eukaryotic translation initiation factor 4E (P63073 whole entry): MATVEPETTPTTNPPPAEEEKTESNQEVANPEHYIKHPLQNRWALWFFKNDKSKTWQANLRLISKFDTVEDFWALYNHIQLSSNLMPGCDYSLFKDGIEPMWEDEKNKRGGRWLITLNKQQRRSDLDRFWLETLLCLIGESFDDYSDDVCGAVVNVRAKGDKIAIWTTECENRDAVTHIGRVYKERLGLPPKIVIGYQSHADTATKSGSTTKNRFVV
# Chain of Large T antigen (P03070 whole entry): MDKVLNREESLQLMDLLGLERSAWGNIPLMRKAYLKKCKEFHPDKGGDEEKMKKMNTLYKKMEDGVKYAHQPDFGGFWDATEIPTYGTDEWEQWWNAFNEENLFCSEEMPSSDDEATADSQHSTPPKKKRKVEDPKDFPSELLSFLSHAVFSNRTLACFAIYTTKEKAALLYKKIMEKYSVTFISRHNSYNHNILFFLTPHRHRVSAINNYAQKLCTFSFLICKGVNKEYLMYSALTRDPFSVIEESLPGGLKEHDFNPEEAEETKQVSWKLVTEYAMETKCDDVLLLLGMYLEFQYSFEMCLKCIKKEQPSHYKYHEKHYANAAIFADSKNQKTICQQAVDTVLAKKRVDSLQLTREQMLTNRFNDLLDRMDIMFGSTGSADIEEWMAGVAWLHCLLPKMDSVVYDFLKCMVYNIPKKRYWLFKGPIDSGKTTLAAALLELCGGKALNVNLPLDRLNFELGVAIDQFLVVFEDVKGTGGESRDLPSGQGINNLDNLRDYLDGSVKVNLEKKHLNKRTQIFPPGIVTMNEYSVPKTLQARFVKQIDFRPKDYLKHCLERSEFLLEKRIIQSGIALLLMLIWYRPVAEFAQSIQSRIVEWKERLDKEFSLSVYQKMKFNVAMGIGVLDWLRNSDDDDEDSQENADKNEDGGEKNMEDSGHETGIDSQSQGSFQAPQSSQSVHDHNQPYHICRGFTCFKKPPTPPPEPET
# Chain of FAD-linked sulfhydryl oxidase ALR (P55789 whole entry): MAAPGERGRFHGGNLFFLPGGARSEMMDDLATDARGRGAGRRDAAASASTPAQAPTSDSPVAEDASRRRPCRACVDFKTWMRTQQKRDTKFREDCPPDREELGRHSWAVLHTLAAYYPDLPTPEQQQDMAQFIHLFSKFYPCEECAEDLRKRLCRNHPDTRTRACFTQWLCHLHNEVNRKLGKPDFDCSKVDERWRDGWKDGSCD
# Chain of Induced myeloid leukemia cell differentiation protein Mcl-1 (Q07820 whole entry): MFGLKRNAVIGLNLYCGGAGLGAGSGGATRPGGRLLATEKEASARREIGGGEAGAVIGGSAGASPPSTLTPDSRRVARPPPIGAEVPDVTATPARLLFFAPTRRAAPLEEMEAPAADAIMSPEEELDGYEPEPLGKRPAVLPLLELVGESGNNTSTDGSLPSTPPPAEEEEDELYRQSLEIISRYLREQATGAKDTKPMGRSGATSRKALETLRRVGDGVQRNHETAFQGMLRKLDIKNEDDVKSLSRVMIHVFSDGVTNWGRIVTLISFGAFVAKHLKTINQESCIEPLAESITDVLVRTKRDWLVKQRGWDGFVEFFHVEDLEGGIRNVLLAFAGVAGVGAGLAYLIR
# Chain of Peroxisome proliferator-activated receptor gamma/Nuclear receptor coactivator 3 (P37231 whole entry): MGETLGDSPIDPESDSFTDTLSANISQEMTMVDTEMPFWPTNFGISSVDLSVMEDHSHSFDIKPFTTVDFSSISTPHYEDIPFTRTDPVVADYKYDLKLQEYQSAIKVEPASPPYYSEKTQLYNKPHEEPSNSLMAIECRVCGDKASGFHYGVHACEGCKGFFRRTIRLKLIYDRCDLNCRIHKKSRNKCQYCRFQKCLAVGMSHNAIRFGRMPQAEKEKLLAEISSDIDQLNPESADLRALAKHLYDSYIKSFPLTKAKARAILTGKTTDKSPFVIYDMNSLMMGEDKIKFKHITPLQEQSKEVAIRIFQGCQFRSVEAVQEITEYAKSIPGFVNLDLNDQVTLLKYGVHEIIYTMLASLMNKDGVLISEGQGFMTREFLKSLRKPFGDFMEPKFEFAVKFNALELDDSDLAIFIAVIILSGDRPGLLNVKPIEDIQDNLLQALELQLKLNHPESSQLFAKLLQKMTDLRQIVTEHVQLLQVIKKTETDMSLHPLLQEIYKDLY
# Chain of Peroxisome proliferator-activated receptor gamma/Nuclear receptor coactivator 3 (Q9Y6Q9 whole entry, further chain): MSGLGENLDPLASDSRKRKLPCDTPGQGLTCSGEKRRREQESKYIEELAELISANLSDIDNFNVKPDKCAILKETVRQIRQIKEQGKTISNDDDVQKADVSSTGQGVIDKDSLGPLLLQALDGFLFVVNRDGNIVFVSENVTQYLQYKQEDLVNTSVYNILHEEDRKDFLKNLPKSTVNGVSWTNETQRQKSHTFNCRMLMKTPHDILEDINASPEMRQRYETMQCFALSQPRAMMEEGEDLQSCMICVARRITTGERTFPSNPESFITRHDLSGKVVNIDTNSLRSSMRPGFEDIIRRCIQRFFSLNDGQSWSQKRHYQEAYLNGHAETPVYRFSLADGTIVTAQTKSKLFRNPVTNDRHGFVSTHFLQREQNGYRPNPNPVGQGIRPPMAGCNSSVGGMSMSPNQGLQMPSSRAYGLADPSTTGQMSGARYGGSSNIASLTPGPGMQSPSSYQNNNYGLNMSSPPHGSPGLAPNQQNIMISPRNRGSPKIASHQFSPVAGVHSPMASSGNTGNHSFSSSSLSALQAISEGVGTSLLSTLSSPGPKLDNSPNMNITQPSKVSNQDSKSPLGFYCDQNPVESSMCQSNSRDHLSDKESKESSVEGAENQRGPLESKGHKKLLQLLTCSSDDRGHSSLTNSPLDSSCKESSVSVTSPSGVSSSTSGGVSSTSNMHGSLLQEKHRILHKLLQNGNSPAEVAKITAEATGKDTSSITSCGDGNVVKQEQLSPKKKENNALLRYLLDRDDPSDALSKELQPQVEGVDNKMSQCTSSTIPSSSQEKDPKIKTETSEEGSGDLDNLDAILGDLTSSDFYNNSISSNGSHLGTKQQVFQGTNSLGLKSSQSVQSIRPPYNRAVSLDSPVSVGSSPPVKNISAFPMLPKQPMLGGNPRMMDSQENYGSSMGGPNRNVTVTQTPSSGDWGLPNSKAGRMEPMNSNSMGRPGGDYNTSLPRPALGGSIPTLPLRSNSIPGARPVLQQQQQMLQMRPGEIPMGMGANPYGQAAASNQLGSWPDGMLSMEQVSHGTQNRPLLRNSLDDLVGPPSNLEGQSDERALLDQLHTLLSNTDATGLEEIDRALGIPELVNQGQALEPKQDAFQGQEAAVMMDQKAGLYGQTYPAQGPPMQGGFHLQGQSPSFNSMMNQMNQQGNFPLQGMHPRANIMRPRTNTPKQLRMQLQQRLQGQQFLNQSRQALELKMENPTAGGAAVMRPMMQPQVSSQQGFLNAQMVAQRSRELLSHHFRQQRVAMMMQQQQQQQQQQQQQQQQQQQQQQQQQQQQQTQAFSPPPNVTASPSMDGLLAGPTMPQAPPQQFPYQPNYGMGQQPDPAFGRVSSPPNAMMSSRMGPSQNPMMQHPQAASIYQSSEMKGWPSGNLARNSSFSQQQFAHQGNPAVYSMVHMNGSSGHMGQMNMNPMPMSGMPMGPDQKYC
# Chain of Beta-galactosidase (Q8VNN2 whole entry): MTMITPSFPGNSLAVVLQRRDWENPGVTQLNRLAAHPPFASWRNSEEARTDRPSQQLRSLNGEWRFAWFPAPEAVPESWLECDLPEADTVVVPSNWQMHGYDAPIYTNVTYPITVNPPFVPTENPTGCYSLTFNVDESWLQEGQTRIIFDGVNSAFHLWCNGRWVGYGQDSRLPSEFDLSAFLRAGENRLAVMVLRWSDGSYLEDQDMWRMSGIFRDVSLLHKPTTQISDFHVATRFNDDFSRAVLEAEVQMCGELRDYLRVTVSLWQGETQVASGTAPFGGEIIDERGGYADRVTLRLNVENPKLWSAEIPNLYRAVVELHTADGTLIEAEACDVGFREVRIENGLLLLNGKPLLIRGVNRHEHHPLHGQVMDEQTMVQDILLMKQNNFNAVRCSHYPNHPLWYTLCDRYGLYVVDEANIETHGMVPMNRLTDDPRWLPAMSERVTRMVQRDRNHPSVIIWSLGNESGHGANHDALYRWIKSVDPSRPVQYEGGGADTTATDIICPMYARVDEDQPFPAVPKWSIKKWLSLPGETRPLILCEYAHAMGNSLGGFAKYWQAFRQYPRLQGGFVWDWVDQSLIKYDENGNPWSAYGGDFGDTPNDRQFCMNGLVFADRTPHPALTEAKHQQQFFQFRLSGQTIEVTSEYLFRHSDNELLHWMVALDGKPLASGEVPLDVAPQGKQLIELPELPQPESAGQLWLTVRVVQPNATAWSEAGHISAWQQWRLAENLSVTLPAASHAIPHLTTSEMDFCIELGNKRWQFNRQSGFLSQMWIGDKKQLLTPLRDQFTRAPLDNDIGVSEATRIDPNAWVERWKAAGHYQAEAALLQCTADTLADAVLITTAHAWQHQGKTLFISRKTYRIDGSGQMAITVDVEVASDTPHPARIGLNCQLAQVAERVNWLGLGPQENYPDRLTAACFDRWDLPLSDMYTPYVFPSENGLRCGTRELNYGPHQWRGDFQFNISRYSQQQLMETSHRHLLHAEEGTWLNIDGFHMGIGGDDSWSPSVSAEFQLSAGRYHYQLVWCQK
structure (smiles),measurement,setting,value
O=C1c2ccccc2-[n+]2ccc3c([nH]c4ccccc43)c21 [FASCAPLYSIN],AC50,[1],0.358 µM (active)
c1ccc(CNCCC(Cc2ccccc2)c2ccco2)cc1 (stereo not drawn),IC50,cells,> 50 µM (active)
same,CC50,[2],> 40 µM (active)
O=C(Cn1nc(C(F)F)cc1C(F)F)NNC(=S)Nc1ccc(F)cc1,IC50,Prothrombin,> 50 µM (not active)
CC(C(=O)NCC1CCCCC1)N(C)Cc1ccc(Br)cc1 (stereo not drawn),CC50,[3],> 40 µM (active)
Oc1n[nH]c(CSCc2ccccc2Cl)n1,IC50,[4],> 64 µM (inactive)
CNCCCCOc1ccccc1-c1ccccc1,AC50,[5],> 20 µM (inactive)
CCN(CC)CCNC(=O)Cc1nn(Cc2ccccc2)c(=O)c2ccccc12,AC50,[5],> 20 µM (inactive)
N#Cc1cc(-c2ccccc2)nn1-c1ccccc1,IC50,[6],1.44 µM (active)
same,IC50,[4],> 64 µM (inactive)
CSc1cnn(-c2ccccc2)c(=O)c1SC,EC50,[7],1.75 µM (active)
same,EC50,[8],1.97 µM (active)
same,EC50,[9],> 79.4 µM (not active)
COc1ccccc1-c1nnc2n1N=C(c1ccc(O)c(O)c1)CS2,AC50,[5],12.4 µM (active)
same,IC50,Leucine aminopeptidase,39.2 µM (active)
same,IC50,[10],> 80 µM (inactive)
same,AC50,[11],1.97 µM (active)
COc1ccc(-c2cc(C)nc(SCC(=O)c3cccc([N+](=O)[O-])c3)n2)cc1,CC50,[3],> 40 µM (active)
Cc1ccc(CN(Cc2ccccc2)C(S)=NCC(=O)N2CCC3(CC2)OCCO3)o1,IC50,[4],50 µM (inactive)
CCOc1cccc(C(=O)NC(=S)Nc2cccc(C)c2)c1,IC50,Beta-galactosidase,> 66.6 µM (inactive)
Cc1cc(C)c(C)c(OCCCOc2cccc3cccnc23)c1,EC50,Streptokinase A,> 150 µM (not active)
same,EC50,Streptococcus,39.4 µM (active)
same,EC50,[12],13.1 µM (active)
same,CC50,[3],15.4 µM (active)
CCCCn1nnc(N(C(=O)c2cccs2)C(=O)c2cccs2)n1,EC50,H4,> 120 µM (not active)
same,IC50,Prothrombin,0.88 µM (active)
same,EC50,[13],12.6 µM (active)
CCN(CC)S(=O)(=O)c1ccc2c(c1)c(=O)c(C(=O)NCc1ccc3c(c1)OCO3)cn2C,IC50,Prothrombin,0.852 µM (active)
O=C1CS/C(=N\c2ccc(O)cc2)N1c1ccc(O)cc1,IC50,[14],51.9 µM (active)
same,AC50,[11],3.26 µM (active)
same,IC50,Large T antigen,11.4 µM (active)
OC[C@@H]1[C@H](c2ccc(C#CC3CCCC3)cc2)[C@H]2CN(CCC(F)(F)F)CCCCN12,AC50,[15],9.12 µM (active)
same,AC50,[16],1.43 µM (active)
same,AC50,[1],10.4 µM (active)
C[C@H](CO)N1C[C@H](C)[C@H](CN(C)C(=O)NC2CCCCC2)Oc2cc(C#Cc3cccc(F)c3)ccc2S1(=O)=O,AC50,[1],14.1 µM (active)
same,AC50,Paired box protein Pax-8,6.2 µM (active)
COc1ccc2c(c1OC)C(=O)N(c1ccc(O)cc1)C2,IC50,Large T antigen,> 100 µM (active)
O=C(Cc1ccccc1)n1nc(-c2ccccc2)nc1NCc1ccco1,IC50,Prothrombin,0.1 µM (active)
